Laboratory results: US4066510A, “Assay for mutagenesis in diploid human lymphoblasts” (Massachusetts Institute of Technology, priority 1976, dated 1978)
Read-outs that look alike come from different tables or passages of the source.

Experiments:
[1] = test system: HGPRT; conditions: linear with time over 60 min, 5 × 10^6 cells/ml in the sonicate
Experimental: HGPRT activity was determined using a modification of a published technique.
The reaction was quenched by addition of 0.025 ml of 50 mM EDTA at 0°. DE-81 2.5-cm disks (DEAE cellulose; Whatman) were spotted with 0.025 ml of the quenched reaction mixture and allowed to dry at 25°. Disks were rinsed at 25° first with 40 ml of 1 mM ammonium formate and then with 20 ml of ethanol in a standard filter-holding chimney (Millipore). Disks were dried for 10 min at 60° in scintillation vials, to which 15 ml of Aquasol (New England Nuclear) were added after the vials had cooled. The vials were then counted on a Packard 2002 scintillation counter. With this system, the overall efficiency of counting phosphorylated purines bound to DE-81 filters was 4.10± 0.03% (S.E., n = 7).

[2] = test system: Mutant Type (HGPRT-) clones (6TG^R); test: cells; conditions: Homo sapiens
Experimental: Cell survival was measured by a soft-agar plating procedure that was originally devised for mouse myeloma cells and latter extended to human lymphoblasts. […] For plating efficiencies, confluent feeder layers were used of a fibroblast strain derived from a patient afflicted with the Lesch-Nyhan syndrome. […] The feeder layer was overlayed with a separation layer formed from 2.5 ml of RPMI 1640 medium containing 0.25% agarose (M.C.I. Biomedical), which was allowed to gel at room temperature (10 min). The cells were suspended in 2.5 ml of 0.25% agarose-RPMI 1640 layered over the separator layer; this layer was then allowed to gel before the plates were incubated at 37° in humidified air containing 5% CO2. On the following day, 1.0 ml of RPMI 1640 medium was placed on each plate, and another 1.0 ml was added 6 days later. Although microscopic colonies could be counted on day 7, 14 days were allowed in order to permit an increase in colony size to about 0.4 mm because this permitted the use of an automatic colony counter (Artek Systems). Cell counts in suspension were accomplished by counting samples on an electronic particle counter (Coulter Electronics).
HGPRT activity and plating efficiencies as a function of 6TG concentration for clones sensitive (6TG^S) or resistant (6TG^R) to 10 μg/ml of 6TG were determined.
Plating efficiencies were determined following the procedure of Example 1.

[3] = Stability of MNU solution (electronic absorption spectra); format: physicochemical; conditions: PBS, pH 7.2, kept cold
Experimental: Crystalline form methylnitrosourea (MNU) was dessicated and preweighed into aliquots. The quantitative electronic absorption spectra of one of these preweighed aliquots dissolved in phosphate buffered saline (PBS), pH7.2, was determined and found to remain stable for more than 60 minutes when kept cold. Fresh solutions were prepared 10 minutes prior to dosing by dissolving preweighed aliquots in PBS and filter-sterilizing the solutions. They were then used immediately for dosing cultures and simultaneously characterized by electronic absorbance spectra.

[4] = test system: human lymphoblast line (MIT-2)
[5] = in vitro; conditions: human, mit-2 lymphoblasts
[6] = test system: 6TG^S and 6TG^R clones; test: Dose-dependent sensitivity to MNU of 6TG^R clones compared with wild-type (6TG^S)

O=c1[nH]cnc2nc[nH]c12 [hypoxanthine]
phosphoribosylation velocity [1]: 6.4 ± 0.4 mmoles of hypoxanthine/min

Nc1nc2nc[nH]c2c(=S)[nH]1 [6TG, 6-thioguanine]
viability at 5 µg/mL ([2]; P1(0.5), read-out: RELATIVE SURVIVING FRACTION, clone P10, 5 μg/ml 6TG): 81% | viability at 5 µg/mL ([2]; read-out: RELATIVE SURVIVING FRACTION, clone B2, 5 μg/ml 6TG): 94% | viability at 10 µg/mL ([2]; read-out: RELATIVE SURVIVING FRACTION, clone B2, 10 μg/ml 6TG): 100% | viability at 20 µg/mL ([2]; read-out: RELATIVE SURVIVING FRACTION, clone B2, 20 μg/ml 6TG): 71% | viability at 5 µg/mL ([2]; read-out: RELATIVE SURVIVING FRACTION, clone B4, 5 μg/ml 6TG): 160% | viability at 10 µg/mL ([2]; read-out: RELATIVE SURVIVING FRACTION, clone B4, 10 μg/ml 6TG): 150% | viability at 20 µg/mL ([2]; read-out: RELATIVE SURVIVING FRACTION, clone B4, 20 μg/ml 6TG): 110% | viability at 5 µg/mL ([2]; read-out: RELATIVE SURVIVING FRACTION, clone B6, 5 μg/ml 6TG): 110% | viability at 10 µg/mL ([2]; read-out: RELATIVE SURVIVING FRACTION, clone B6, 10 μg/ml 6TG): 82% | viability at 20 µg/mL ([2]; read-out: RELATIVE SURVIVING FRACTION, clone B6, 20 μg/ml 6TG): 76% | viability at 5 µg/mL ([2]; read-out: RELATIVE SURVIVING FRACTION, clone B7, 5 μg/ml 6TG): 120% | viability at 10 µg/mL ([2]; read-out: RELATIVE SURVIVING FRACTION, clone B7, 10 μg/ml 6TG): 66% | viability at 20 µg/mL ([2]; read-out: RELATIVE SURVIVING FRACTION, clone B7, 20 μg/ml 6TG): 57% | viability at 5 µg/mL ([2]; read-out: RELATIVE SURVIVING FRACTION, clone B8, 5 μg/ml 6TG): 100% | viability at 10 µg/mL ([2]; read-out: RELATIVE SURVIVING FRACTION, clone B8, 10 μg/ml 6TG): 93% | viability at 20 µg/mL ([2]; read-out: RELATIVE SURVIVING FRACTION, clone B8, 20 μg/ml 6TG): 80% | viability at 5 µg/mL ([2]; read-out: RELATIVE SURVIVING FRACTION, clone B9, 5 μg/ml 6TG): 110% | viability at 10 µg/mL ([2]; read-out: RELATIVE SURVIVING FRACTION, clone B9, 10 μg/ml 6TG): 120% | viability at 20 µg/mL ([2]; read-out: RELATIVE SURVIVING FRACTION, clone B9, 20 μg/ml 6TG): 68% | viability at 5 µg/mL ([2]; read-out: RELATIVE SURVIVING FRACTION, clone B13, 5 μg/ml 6TG): 86% | viability at 10 µg/mL ([2]; read-out: RELATIVE SURVIVING FRACTION, clone B13, 10 μg/ml 6TG): 100% | viability at 20 µg/mL ([2]; read-out: RELATIVE SURVIVING FRACTION, clone B13, 20 μg/ml 6TG): 45% | viability at 5 µg/mL ([2]; read-out: RELATIVE SURVIVING FRACTION, clone B15, 5 μg/ml 6TG): 71% | viability at 10 µg/mL ([2]; read-out: RELATIVE SURVIVING FRACTION, clone B15, 10 μg/ml 6TG): 87% | viability at 20 µg/mL ([2]; read-out: RELATIVE SURVIVING FRACTION, clone B15, 20 μg/ml 6TG): 37% | viability at 5 µg/mL ([2]; read-out: RELATIVE SURVIVING FRACTION, clone B17, 5 μg/ml 6TG): 110% | viability at 10 µg/mL ([2]; read-out: RELATIVE SURVIVING FRACTION, clone B17, 10 μg/ml 6TG): 140% | viability at 20 µg/mL ([2]; read-out: RELATIVE SURVIVING FRACTION, clone B17, 20 μg/ml 6TG): 160% | viability at 5 µg/mL ([2]; read-out: RELATIVE SURVIVING FRACTION, clone B20, 5 μg/ml 6TG): 90% | viability at 10 µg/mL ([2]; read-out: RELATIVE SURVIVING FRACTION, clone B20, 10 μg/ml 6TG): 83% | viability at 20 µg/mL ([2]; read-out: RELATIVE SURVIVING FRACTION, clone B20, 20 μg/ml 6TG): 51% | viability at 10 µg/mL ([2]; read-out: RELATIVE SURVIVING FRACTION, clone D3, 10 μg/ml 6TG): 71% | viability at 20 µg/mL ([2]; read-out: RELATIVE SURVIVING FRACTION, clone D3, 20 μg/ml 6TG): 73% | viability at 5 µg/mL ([2]; read-out: RELATIVE SURVIVING FRACTION, clone P1, 5 μg/ml 6TG): 112% | viability at 10 µg/mL ([2]; read-out: RELATIVE SURVIVING FRACTION, clone P1, 10 μg/ml 6TG): 75% | viability at 20 µg/mL ([2]; read-out: RELATIVE SURVIVING FRACTION, clone P1, 20 μg/ml 6TG): 86% | viability at 5 µg/mL ([2]; read-out: RELATIVE SURVIVING FRACTION, clone P2, 5 μg/ml 6TG): 173% | viability at 10 µg/mL ([2]; read-out: RELATIVE SURVIVING FRACTION, clone P2, 10 μg/ml 6TG): 121% | viability at 20 µg/mL ([2]; read-out: RELATIVE SURVIVING FRACTION, clone P2, 20 μg/ml 6TG): 94% | viability at 5 µg/mL ([2]; read-out: RELATIVE SURVIVING FRACTION, clone P6, 5 μg/ml 6TG): 103% | viability at 10 µg/mL ([2]; read-out: RELATIVE SURVIVING FRACTION, clone P6, 10 μg/ml 6TG): 97% | viability at 20 µg/mL ([2]; read-out: RELATIVE SURVIVING FRACTION, clone P6, 20 μg/ml 6TG): 67% | viability at 5 µg/mL ([2]; read-out: RELATIVE SURVIVING FRACTION, clone P7, 5 μg/ml 6TG): 80% | viability at 10 µg/mL ([2]; read-out: RELATIVE SURVIVING FRACTION, clone P7, 10 μg/ml 6TG): 60% | viability at 20 µg/mL ([2]; read-out: RELATIVE SURVIVING FRACTION, clone P7, 20 μg/ml 6TG): 54% | viability at 5 µg/mL ([2]; read-out: RELATIVE SURVIVING FRACTION, clone P9, 5 μg/ml 6TG): 86% | viability at 10 µg/mL ([2]; read-out: RELATIVE SURVIVING FRACTION, clone P9, 10 μg/ml 6TG): 45% | viability at 20 µg/mL ([2]; read-out: RELATIVE SURVIVING FRACTION, clone P9, 20 μg/ml 6TG): 22% | viability at 10 µg/mL ([2]; read-out: RELATIVE SURVIVING FRACTION, clone P10, 10 μg/ml 6TG): 41% | viability at 20 µg/mL ([2]; read-out: RELATIVE SURVIVING FRACTION, clone P10, 20 μg/ml 6TG): 30% | viability at 5 µg/mL ([2]; read-out: RELATIVE SURVIVING FRACTION, clone P11, 5 μg/ml 6TG): 100% | viability at 10 µg/mL ([2]; read-out: RELATIVE SURVIVING FRACTION, clone P11, 10 μg/ml 6TG): 55% | viability at 20 µg/mL ([2]; read-out: RELATIVE SURVIVING FRACTION, clone P11, 20 μg/ml 6TG): 24% | viability at 5 µg/mL ([2]; read-out: RELATIVE SURVIVING FRACTION, clone P15, 5 μg/ml 6TG): 87% | viability at 10 µg/mL ([2]; read-out: RELATIVE SURVIVING FRACTION, clone P15, 10 μg/ml 6TG): 58% | viability at 20 µg/mL ([2]; read-out: RELATIVE SURVIVING FRACTION, clone P15, 20 μg/ml 6TG): 27% | viability at 5 µg/mL ([2]; read-out: RELATIVE SURVIVING FRACTION, clone P18, 5 μg/ml 6TG): 55% | viability at 10 µg/mL ([2]; read-out: RELATIVE SURVIVING FRACTION, clone P18, 10 μg/ml 6TG): 62% | viability at 20 µg/mL ([2]; read-out: RELATIVE SURVIVING FRACTION, clone P18, 20 μg/ml 6TG): 45%

CN(N=O)C(N)=O [MNU, methylnitrosourea]
stability of electronic absorption spectrum in solution [3]: more than 60 minutes | EST. INITIAL GROWTH DELAY [4]: 0 | absolute plating efficiency in the absence of 6TG, stable maximum [4]: about 0.28 clones observed/particle plated | population increase before the culture's apparent cessation of growth [4]: about 2.25 times | viability at 24 h [5]: 0.1% | survival fraction of one 6TG^R clone ([6]; 1 6TG^R clone, relatively high concentration of MNU): high survival fraction | MNU toxicity, 6TG^S versus 6TG^R clones ([6]; 4 6TG^S and 4 6TG^R clones): the average behavior of the two groups was virtually identical

CCOS(C)(=O)=O [EMS, ethyl methane sulphonate]
EST. INITIAL GROWTH DELAY [4]: 0 | viability at 24 h [5]: 0.12%
